What was measured:
Type in all cases: cell-based, Human
[1] = tested on: p53 pathway genes in BxPC-3 cells; assay: RNA sequencing / GSEA in BxPC-3 cells; details: 3 µM, 4 h
A549-p53^Y220C cells [2] = assay: Apoptosis FACS; details: 3 µM
A549-p53^Y220C cells [3] = assay: SA-β-galactosidase senescence stain; details: 3 µM, 6-day treatment

SMILES	share of the top 116 p53 target genes with significantly increased expression [1]	apoptosis induction (in words) (A549-p53^Y220C cells [2])	SA-β-gal senescence staining (in words) (A549-p53^Y220C cells [3])
CCn1c2ccc(CNCCOCCOCCOCCn3cc(COc4ccc(CCc5nc6cc(-c7c(C)noc7C)ccc6n5CCN5CCOCC5)cc4F)nn3)cc2c2ccc(-c3cc(C)cs3)cc21 [MS78]	22.8%		
Cc1sc2c(c1C)C(c1ccc(Cl)cc1)=N[C@@H](CC(=O)OC(C)(C)C)c1nnc(C)n1-2 [JQ1]	57.0%	slightly less apoptosis	relatively few senescent cells
